# From EP0103895A2, “Novel hydroxylamine derivatives, production and use thereof” (MEIJI SEIKA KABUSHIKI KAISHA, priority 1982, dated 1984)
# Values joined by “and” are separate entries in the source; they are usually repeats but may differ in a detail not shown here. Equal values may be shown once. Read-outs that look alike come from different tables or passages of the source.
# Experiments:
# [1] = system: Diphyllobothrium erinacei; experiment: Test of anthelmintic effect against Diphyllobothrium erinacei (tapeworm) in experimentally infected cats (Test Examples A5, B5, C5, D5); conditions: for anthelmintic effect: 5 continuous administrations of 50 mg/Kg; for Number of worms remaining in enteron: 50 mg/Kg x 5
# [2] = system: fowl roundworm (As. galli); experiment: Anthelmintic test in chickens artificially infected with fowl roundworm, compound added to feed, E.P.G. and worm count up to 21st day (Test Examples A2, B2, C2, D2); format: in vivo, Ascaridia galli
# [3] = system: fowl roundworm (Ascaridia galli); experiment: Anthelmintic test in chickens artificially infected with fowl roundworm, single oral dose in gelatin capsule, worm bodies counted within 48 hours (Test Examples A1, B1, C1, D1); format: in vivo; conditions: Ascaridia galli, po, 48 h, read-out: Anthelmintic effect after 48 hours; for inhibition in vivo at 15 mg/kg: 15 mg/Kg oral in gelatin capsule
# Procedure, shortened: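 Groups of three chickens with confirmed Ascaridia galli infection given a single oral dose in gelatin capsule (10 and 20 mg/kg in A1 and B1; 30 and 50 mg/kg in C1; 15 and 30 mg/kg in D1). Worms expelled over 48 h and those remaining in the gut at necropsy counted to give anthelmintic percentage.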
# [4] = system: swine Oesophagostomum (Oesophagostomum dentatum); experiment: Test of anthelmintic effect against swine Oesophagostomum in naturally infected pigs, E.P.G. on 7th day (Test Examples A8, B8, C8, D8); format: in vivo; conditions: for anthelmintic effect: one administration of 20 mg/Kg
# Method: Six pigs infected with swine Oesophagostomum (naturally infected pigs) were employed by grouping them into groups each of two pigs.
# As a control, only gelatin capsules were administered orally to the two pigs.
# (§1) Before administration and on the 7th day after administration, fecal matter testing was conducted to calculate the E.P.G., and the anthelmintic effect was judged by the changing of the E.P.G. to negative.
# [5] = system: Liver fluke; Fasciola hepatica (F. hepatica); experiment: Test of anthelmintic effect against rat infected experimentally with liver fluke (Test Examples A11, B11, C11, D11); format: in vivo; set-up: key to Presence or absence of fluke egg in fecal matter On 21st day after the last administration: +: indicates detection of fluke egg; -: indicates no detection; conditions: for anthelmintic effect: five administrations in a dose of 50 mg/Kg each
# Description: Twenty-eight (28) rats were employed in fourteen groups each of two rats, each rat being infected with 5 metacercariae of Liver fluke; Fasciola he^patica (F.. hepatica) and confirmed to have worm eggs on the 75th day after infection according to fecal matter testing.
# Judgement of the effect was made by the presence or absence of the worm gees in the fecal matter on the 21st day after the last administration and by examination according to autopsis as to whether the worm bodies were dead or alive in the liver.
# The same as that in Test Example All, but eight (8) rats were employed by grouping them into groups each of two rats, each rat being infected with 5 metacercariae of liver fluke and confirmed to have fluke eggs on the 75th day after infection according to fecal matter testing.
# The compounds provided for the tests were Compound Nos. Bl, B8 and B19.
# The same as that in Test Example All, but six (6) rats were employed by grouping them into groups each of two rats, each rat being infected with 5 metacercariae of Fasciola hepatica and confirmed to have worm eggs on the 75th day after infection according to fecal matter testing.
# The compounds provided for the tests were Compound Nos. C2 and C6.
# The same as that in Test Example All, but the compounds provided for tests were Compound Nos. D14, D15 and D16.
# [6] = system: canine filaria; Dirofilaria immitis; experiment: Test of anthelmintic effect against canine filaria in naturally infected dogs, subcutaneous injection, microfilaria in blood and adult filaria at autopsy (Test Examples A10, B10, C10, D10); format: in vivo; conditions: for inhibition in vivo at 30 mg/kg / inhibition in vivo at 20 mg/kg: Dirofilaria immitis, sc, 240 h
# Method: Eight dogs infected with canine filaria; Diro- filaria immitis (naturally infected dogs) were employed in groups each of two dogs.
# The compounds provided for tests were Compound Nos. Al, A3 and A12. 20 mg of each was administered by subcutaneous injection per Kg of body weight to each of the two dogs as a suspension in 1% "Tween 80" solution once per day for three days. As control, 3 ml of the 1% "Tween 80" solution was subcutaneously injected into two dogs once per day for three days.
# Before administration and on the 10th day after administration, 20 µl of earlobe blood of each dog was sampled and examined to determine the change in microfilaria (mf) according to the concentrated smear color method, and judgement on the effect on microfilaria (mf) was made. Judgement relating to adult filaria was made on the 10th day after the last administration by killing the dogs and carrying out autopsis.
# 30 mg of each compound was administered by subcutaneous injection per Kg of body weight to each of the two dogs as a suspension in 1% "Tween 80" solution once per day for three days. As control, 3 ml of the 1% "Tween 80" solution was subcutaneously injected into two dogs once per day for three days.
# 30 mg of each compound was administered by subcutaneous injection per Kg of body weight to each of two dogs as a suspension in 1% "Tween 80" solution once per day for three days. As control, 3 ml of the 1% "Tween 80" solution was subcutaneously injected to two dogs once per day for three days.
# 20 mg of each compound was administered by subcutaneous injection per kg of body weight once per day for three days to each of two dogs. These compounds were administered as a suspension in 1% "Tween 80" in the case of Compound No.Dl3 and as solutions dissolved in distilled water for injection in the case of Compounds Nos. D10 and D16, respectively. As control, 3 ml of the 1% "Tween 80" solution was subcutaneously injected into two dogs once per day for three days.
# [7] = system: canine strongyloides (Strongyloides stercoralis); experiment: Anthelmintic test against canine strongyloides in naturally infected dogs, E.P.G. on 7th day (Test Examples A4, B4, C4, D4); format: in vivo
# Method: Three dogs infected with canine strongyloides (naturally infected dogs) were employed by grouping them into a group of two and a group of one.
# As control, only a gelatin capsule was administered orally to the one dog.
# as §1
# (§2) As control, only gelatin capsules were administered orally to the one dog.
# as §2
# [8] = cat, 50 mg/Kg x 5, oral in gelatin capsule
# [9] = cat, 50 mg/Kg x 5, oral in gelatin capsule, once per day for 5 days
# [10] = Ascaridia galli, feed or water, 504 h, chicken, 25 ppm in feed, read-out: Anthelmintic effect
# [11] = Ascaridia galli, feed or water, 504 h, chicken, 50 ppm in feed, read-out: Anthelmintic effect
# [12] = chicken, 30 mg/Kg oral in gelatin capsule, chickens No.1-3
# [13] = chicken, 50 mg/Kg oral in gelatin capsule, chickens No.1-3
# [14] = pigs, 20 mg/Kg orally once, baseline, one value per pig, 20 mg/kg
# [15] = pigs, 20 mg/Kg orally once, one value per pig
# [16] = Ascaridia galli, po, 504 h, chickens, 50 ppm added to feed, worm count on 21st day, one value per chicken, read-out: Anthelmintic effect
# [17] = dogs, administration of 20 mg/Kg repeated three times, given as about 50% or more, read-out: anthelmintic effect against adult filaria
# [18] = dogs, administration of 20 mg/Kg repeated three times
# [19] = dogs, 20 mg/Kg x 3 subcutaneously, autopsy on 10th day after the last administration, one value per dog, 20 mg/kg
smiles,measurement,setting,value
C=CCON(CC=C)C(=O)c1ccc(F)cc1 [Compound C7],Number of worm bodies remaining in enteron,[1]; [8],0
same,Worm egg detection on 10th day after administration,[1]; [9],-
same,anthelmintic effect,[1]; cats,marked anthelmintic effects
same,inhibition in vivo at 25 ppm,[2]; [10],100%
same,inhibition in vivo at 50 ppm,[2]; [11],100%
same,Change of E.P.G. 21st day,"[2]; chicken, 25 ppm in feed",0
same,Change of E.P.G. 21st day,"[2]; chicken, 50 ppm in feed",0
same,inhibition in vivo at 30 mg/kg,[3]; [12],100%
same,inhibition in vivo at 50 mg/kg,[3]; [13],100%
C=CCON(CC=C)C(=O)CC [Compound C2],Change of E.P.G. 7th day,"[4]; pig, Oesophagostomum dentatum, 20 mg/Kg, one administration",0
same,Change of E.P.G. Before administration,"[4]; pig, Oesophagostomum dentatum, before 20 mg/Kg (baseline)","1,700 and 1,200"
same,anthelmintic effect,[4]; pigs,marked anthelmintic effect
same,Number of worm bodies remaining in enteron,[1]; [8],0
same,Worm egg detection on 10th day after administration,[1]; [9],-
same,anthelmintic effect,[1]; cats,marked anthelmintic effects
same,inhibition in vivo at 25 ppm,[2]; [10],100%
same,inhibition in vivo at 50 ppm,[2]; [11],100%
same,Change of E.P.G. 21st day,"[2]; chicken, 25 ppm in feed",0
same,Change of E.P.G. 21st day,"[2]; chicken, 50 ppm in feed",0
same,Condition of fluke body,"[5]; rat, 50 mg/Kg x 5",dead
same,Presence or absence of fluke egg in fecal matter On 21st day after the last administration,"[5]; rat, 50 mg/Kg x 5",-
same,anthelmintic effect,[5]; rats,marked antihelmintic effect
same,inhibition in vivo at 30 mg/kg,"[6]; dog, 30 mg/Kg x 3, subcutaneous injection, read-out: Effect on adult filaria: Percent of worms killed",62%
same,inhibition in vivo at 30 mg/kg,"[6]; dogs, administration of 30 mg/Kg repeated three times, given as about 50% or more, read-out: anthelmintic effect against adult filaria",≥ 50%
same,Number of microfilaria/20 µl On 10th day after the last administration,"[6]; dog, 30 mg/Kg x 3, subcutaneous injection, suspension in 1% Tween 80",0 /20 µl
same,Effect on adult filaria: Number of worms killed/ Total parasite,"[6]; dog, 30 mg/Kg x 3, subcutaneous injection, 30 mg/kg",5/8 and 8/13
same,anthelmintic effect against microfilaria (mf),"[6]; dogs, administration of 30 mg/Kg repeated three times",marked anthelmintic effect
same,inhibition in vivo at 30 mg/kg,[3]; [12],100%
same,inhibition in vivo at 50 mg/kg,[3]; [13],100%
C=CCN(OCCCCC)C(C)=O [Compound B20],Change of E.P.G. Before administration,[4]; [14],"1,000 E.P.G. and 1,600 E.P.G."
same,Change of E.P.G. 7th day,[4]; [15],0 E.P.G.
same,anthelmintic effect,[4]; pigs,marked anthelmintic effect
same,inhibition in vivo at 20 ppm,"[2]; Ascaridia galli, po, 504 h, chickens, 20 ppm added to feed, worm count on 21st day, one value per chicken, read-out: Anthelmintic effect",100%
same,inhibition in vivo at 50 ppm,[2]; [16],100%
same,inhibition in vivo at 30 mg/kg,"[3]; chickens, 30 mg/Kg orally in gelatin capsule, one value per chicken (No.1-3)",100%
same,inhibition in vivo at 50 mg/kg,"[3]; chickens, 50 mg/Kg orally in gelatin capsule, one value per chicken (No.1-3)",100%
"C#CCNOC.Cl [Compound D16, N-propargyl-O-methylhydroxylamine hydrochloride]",Change of E.P.G. 7th day,"[7]; dog, Strongyloides stercoralis, 10 mg/Kg, one administration",0
same,Change of E.P.G. Before administration,"[7]; dog, Strongyloides stercoralis, before 10 mg/Kg (baseline), hydrochloride","2,300 and 1,800"
same,anthelmintic effect,"[7]; dogs, one administration of 10 mg/Kg",marked anthelmintic effect
same,Number of worms remaining in enteron,[1]; cat,0
same,anthelmintic effect,[1]; cats,marked anthelmintic effects
same,inhibition in vivo at 25 ppm,[2]; [10],100%
same,inhibition in vivo at 50 ppm,[2]; [11],100%
same,Condition of fluke bodies,"[5]; rat, 50 mg/Kg x 5",dead
same,Presence or absence of fluke egg in fecal matter On 21st day after the last administration,"[5]; rat, 50 mg/Kg x 5",-
same,anthelmintic effect,[5]; rats,marked anthelmintic effect
same,inhibition in vivo at 20 mg/kg,"[6]; dog, 20 mg/Kg x 3, subcutaneous injection, read-out: Effect on adult filaria: Percent of worms killed",55%
same,inhibition in vivo at 20 mg/kg,[6]; [17],≥ 50%
same,Number of microfilaria/20µl On 10th day after the administration,"[6]; dog, 20 mg/Kg x 3, subcutaneous injection",0 /20µl
same,Effect on adult filaria: Number of worms killed/ Total parasite,"[6]; dog, 20 mg/Kg x 3, subcutaneous injection, hydrochloride, 20 mg/kg",16/29 and 23/37
same,Number of microfilaria/20µl Before administration,"[6]; dog, before 20 mg/Kg x 3 subcutaneous injection (baseline), hydrochloride",18 /20µl and 31 /20µl
same,anthelmintic effect against microfilaria (mf),[6]; [18],marked anthelmintic effect
same,inhibition in vivo at 15 mg/kg,"[3]; chicken, chickens No.1-3",100%
same,inhibition in vivo at 30 mg/kg,[3]; [12],100%
"C#CCN(OCC=C)C(=O)c1ccc(F)cc1 [Compound A12, N-propargyl-N-(p-fluorobenzoyl)-O-allylhydroxylamine]",Change of E.P.G. Before administration,[4]; [14],"2,100 E.P.G. and 1,500 E.P.G."
same,Change of E.P.G. 7th day,[4]; [15],0 E.P.G.
same,anthelmintic effect,[4]; pigs,marked anthelmintic effect
same,Number of worm bodies remaining in enteron,"[1]; cats infected with 5 plerocercoids, 50 mg/Kg x 5 times orally, autopsy ten days after administration, one value per cat",0
same,Worm egg detection on 10th day after administration,"[1]; cats, 50 mg/Kg x 5 times orally, one value per cat (Table A7)",-
same,anthelmintic effect,[1]; cats,marked anthelmintic effects
same,inhibition in vivo at 10 ppm,"[2]; Ascaridia galli, po, 504 h, chickens, 10 ppm added to feed, worm count on 21st day, one value per chicken, read-out: Anthelmintic effect",80 to 90%
same,inhibition in vivo at 50 ppm,[2]; [16],100%
same,Condition of fluke body,"[5]; rats, 50 mg/Kg x 5 orally, autopsy, liver, ""Denatured"" = fluke body is alive but a part of fluke body has changed, one value per rat",dead
same,Presence or absence of fluke egg in fecal matter On 21st day after the last administration,"[5]; rats, 50 mg/Kg x 5 orally, one value per rat",-
same,inhibition in vivo at 20 mg/kg,[6]; [17],≥ 50%
same,Effect on adult filaria: Number of worms killed/Total parasites,[6]; [19],13/21 and 15/26
same,Effect on adult filaria: Percent of worms killed,[6]; [19],62% and 58%
same,Number of microfilaria/20 µl On 10th day after the last administration,"[6]; dogs, 20 mg/Kg x 3 subcutaneously, earlobe blood, one value per dog",0 /20 µl
same,anthelmintic effect against microfilaria (mf),[6]; [18],marked anthelmintic effect
C=CCNOC [Compound D9],Number of worms remaining in enteron,[1]; cat,0
same,anthelmintic effect,[1]; cats,marked anthelmintic effects
same,inhibition in vivo at 15 mg/kg,"[3]; chicken, chickens No.1-3",50 to 79%
same,inhibition in vivo at 30 mg/kg,[3]; [12],100%
